pEC50, pIC50: −log10 of the molar value.
Legend:
[1] = target: MmCLK1 (Mus musculus, UniProt P22518); experiment: ADP-Glo kinase assay; type: biochemical, Mus musculus (Mm); settings: for remaining activity at 1 µM: mean n = 2, % of maximum activity of DMSO control, read-out: % Residual activity at 1 μM CLK1; for pIC50: dose-response curve, each point in duplicate, read-out: Kinase inhibition (IC50) CLK1; for Selectivity index CLK1/Haspin: IC50 CLK1/IC50 Haspin
Experimental: (§1) Kinase activities were determined using the ADP-Glo methodology (ADP-Glo Kinase Assay; Promega) according to the assay described by Nguyen et al.[32] except for MmCLK1. The later was assayed in the following buffer: 10 mM MgCl2, 1 mM EGTA, 1 mM DTT, 25 mM Tris-HCl pH 7.5, 50 µg/ml heparin, 0.15 mg/ml BSA, with 0.027 µg/µl of the following peptide: GRSRSRSRSRSR as substrate.

[2] = target: RnDYRK1A (Rattus norvegicus, UniProt Q63470); experiment: ADP-Glo kinase assay; type: biochemical, Rattus norvegicus (Rn); settings: for pIC50: dose-response curve, each point in duplicate, read-out: Kinase inhibition (IC50) DYRK1A; for remaining activity: mean n = 2, % of maximum activity of DMSO control, read-out: % Residual activity at 1 μM DYRK1A; for Selectivity index DYRK/Haspin: IC50 DYRK1A/IC50 Haspin
Experimental: as §1

[3] = target: HsCdk9/Cyc E (Homo sapiens, UniProt P50750); experiment: ADP-Glo kinase assay; type: biochemical, Homo sapiens (Hs); settings: mean n = 2, % of maximum activity of DMSO control, read-out: % Residual activity at 1 μM CDK9
Sequence of HsCdk9/Cyc E (P50750 whole entry): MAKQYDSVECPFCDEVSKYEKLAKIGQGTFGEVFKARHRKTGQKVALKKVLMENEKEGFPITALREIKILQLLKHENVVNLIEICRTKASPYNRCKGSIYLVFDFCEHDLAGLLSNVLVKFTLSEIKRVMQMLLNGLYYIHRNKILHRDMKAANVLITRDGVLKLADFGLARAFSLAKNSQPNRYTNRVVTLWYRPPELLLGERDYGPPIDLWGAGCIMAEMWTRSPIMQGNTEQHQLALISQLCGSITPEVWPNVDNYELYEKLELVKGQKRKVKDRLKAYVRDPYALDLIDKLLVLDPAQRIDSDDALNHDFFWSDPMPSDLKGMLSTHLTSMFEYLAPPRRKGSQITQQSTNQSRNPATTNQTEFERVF
Sequence of HsCdk9/Cyc E (O60563 whole entry partner): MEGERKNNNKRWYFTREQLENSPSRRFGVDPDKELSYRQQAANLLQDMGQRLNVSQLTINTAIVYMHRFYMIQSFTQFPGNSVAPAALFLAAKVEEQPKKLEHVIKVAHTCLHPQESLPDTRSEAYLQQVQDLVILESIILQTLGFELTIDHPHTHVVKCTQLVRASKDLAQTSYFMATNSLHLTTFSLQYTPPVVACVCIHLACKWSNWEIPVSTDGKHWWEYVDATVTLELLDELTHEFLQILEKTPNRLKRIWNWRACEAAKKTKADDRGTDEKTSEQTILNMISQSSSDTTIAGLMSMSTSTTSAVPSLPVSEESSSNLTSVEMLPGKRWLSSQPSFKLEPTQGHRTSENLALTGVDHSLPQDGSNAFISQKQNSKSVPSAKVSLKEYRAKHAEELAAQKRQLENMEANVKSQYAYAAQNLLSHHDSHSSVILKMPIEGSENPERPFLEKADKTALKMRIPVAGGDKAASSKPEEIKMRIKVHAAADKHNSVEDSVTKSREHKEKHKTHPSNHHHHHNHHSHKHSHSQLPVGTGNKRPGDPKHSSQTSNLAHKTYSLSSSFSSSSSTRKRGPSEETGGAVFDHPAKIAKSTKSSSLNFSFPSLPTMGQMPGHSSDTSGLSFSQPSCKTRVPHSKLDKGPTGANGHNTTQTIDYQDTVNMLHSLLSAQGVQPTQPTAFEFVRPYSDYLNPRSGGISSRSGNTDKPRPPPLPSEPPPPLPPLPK
Experimental: as §1

[4] = target: HsCdk2/Cyc A (Homo sapiens, UniProt P24941); experiment: ADP-Glo kinase assay; type: biochemical, Homo sapiens (Hs); settings: mean n = 2, % of maximum activity of DMSO control, read-out: % Residual activity at 1 μM CDK2
Experimental: as §1

[5] = target: HsCdk5/p25 (Homo sapiens, UniProt Q00535); experiment: ADP-Glo kinase assay; type: biochemical, Homo sapiens (Hs); settings: mean n = 2, % of maximum activity of DMSO control, read-out: % Residual activity at 1 μM CDK5
Sequence of HsCdk5/p25 (Q00535 whole entry): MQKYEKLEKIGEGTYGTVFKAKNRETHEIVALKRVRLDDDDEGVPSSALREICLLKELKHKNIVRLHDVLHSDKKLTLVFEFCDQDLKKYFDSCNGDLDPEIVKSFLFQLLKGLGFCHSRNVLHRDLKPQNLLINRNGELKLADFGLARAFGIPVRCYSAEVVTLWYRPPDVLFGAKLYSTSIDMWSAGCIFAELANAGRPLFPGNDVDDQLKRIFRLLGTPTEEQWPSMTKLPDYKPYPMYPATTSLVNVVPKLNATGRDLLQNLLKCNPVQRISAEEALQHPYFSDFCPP
Sequence of HsCdk5/p25 (Q15078 99-307 partner limits assumed): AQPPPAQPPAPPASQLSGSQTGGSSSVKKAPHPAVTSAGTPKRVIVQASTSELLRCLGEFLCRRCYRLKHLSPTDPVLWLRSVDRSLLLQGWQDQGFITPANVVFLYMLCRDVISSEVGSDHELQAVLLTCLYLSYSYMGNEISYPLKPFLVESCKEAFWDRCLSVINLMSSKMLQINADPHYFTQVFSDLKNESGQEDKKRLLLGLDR
Experimental: as §1

[6] = target: T1, HsHaspin (Homo sapiens, UniProt Q8TF76); experiment: ADP-Glo kinase assay; type: biochemical, Homo sapiens (Hs); settings: for remaining activity at 1 µM: mean n = 2, % of maximum activity of DMSO control, read-out: % Residual activity at 1 μM Haspin; for pIC50: dose-response curve, each point in duplicate, read-out: Kinase inhibition (IC50) Haspin
T1 sequence (Q8TF76 1-798): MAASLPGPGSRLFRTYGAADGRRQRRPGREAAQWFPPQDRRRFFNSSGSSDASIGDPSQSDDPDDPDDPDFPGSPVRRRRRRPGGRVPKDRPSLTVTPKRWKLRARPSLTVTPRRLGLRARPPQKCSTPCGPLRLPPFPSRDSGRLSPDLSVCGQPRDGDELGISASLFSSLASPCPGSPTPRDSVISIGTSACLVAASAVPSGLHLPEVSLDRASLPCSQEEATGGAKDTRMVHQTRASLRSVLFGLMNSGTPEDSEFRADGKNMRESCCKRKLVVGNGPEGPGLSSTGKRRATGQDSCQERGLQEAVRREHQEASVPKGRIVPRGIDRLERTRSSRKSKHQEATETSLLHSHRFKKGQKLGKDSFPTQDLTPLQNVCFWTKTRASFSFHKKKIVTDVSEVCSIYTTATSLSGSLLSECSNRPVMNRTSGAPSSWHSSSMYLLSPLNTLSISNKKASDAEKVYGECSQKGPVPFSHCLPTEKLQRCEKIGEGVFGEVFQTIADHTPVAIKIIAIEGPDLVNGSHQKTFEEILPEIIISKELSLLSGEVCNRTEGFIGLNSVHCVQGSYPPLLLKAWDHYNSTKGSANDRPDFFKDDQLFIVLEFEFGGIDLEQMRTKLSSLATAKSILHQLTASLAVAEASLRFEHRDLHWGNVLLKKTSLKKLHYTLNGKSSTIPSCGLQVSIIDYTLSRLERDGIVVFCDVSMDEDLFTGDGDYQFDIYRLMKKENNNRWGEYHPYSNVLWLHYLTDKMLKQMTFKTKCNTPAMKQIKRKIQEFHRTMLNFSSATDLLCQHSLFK
Experimental: as §1

[7] = target: HsGSK3β (Homo sapiens, UniProt P49841); experiment: ADP-Glo kinase assay; type: biochemical, Homo sapiens (Hs); settings: mean n = 2, % of maximum activity of DMSO control, read-out: % Residual activity at 1 μM GSK3β
Sequence of HsGSK3β (P49841 whole entry): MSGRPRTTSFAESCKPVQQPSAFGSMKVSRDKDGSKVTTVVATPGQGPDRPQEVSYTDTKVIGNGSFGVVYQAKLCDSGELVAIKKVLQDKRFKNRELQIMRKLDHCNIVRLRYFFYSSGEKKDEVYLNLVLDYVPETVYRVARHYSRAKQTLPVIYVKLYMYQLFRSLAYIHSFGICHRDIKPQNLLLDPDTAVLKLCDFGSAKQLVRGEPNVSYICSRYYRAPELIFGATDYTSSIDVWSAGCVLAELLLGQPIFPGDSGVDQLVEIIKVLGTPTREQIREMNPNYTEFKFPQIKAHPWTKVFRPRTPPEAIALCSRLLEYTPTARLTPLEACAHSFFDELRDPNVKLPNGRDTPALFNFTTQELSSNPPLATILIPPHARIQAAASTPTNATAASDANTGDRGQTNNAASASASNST
Experimental: as §1

[8] = target: HsPIM1 (Homo sapiens, UniProt P11309); experiment: ADP-Glo kinase assay; type: biochemical, Homo sapiens (Hs); settings: mean n = 2, % of maximum activity of DMSO control, read-out: % Residual activity at 1 μM PIM1
Sequence of HsPIM1 (P11309 whole entry): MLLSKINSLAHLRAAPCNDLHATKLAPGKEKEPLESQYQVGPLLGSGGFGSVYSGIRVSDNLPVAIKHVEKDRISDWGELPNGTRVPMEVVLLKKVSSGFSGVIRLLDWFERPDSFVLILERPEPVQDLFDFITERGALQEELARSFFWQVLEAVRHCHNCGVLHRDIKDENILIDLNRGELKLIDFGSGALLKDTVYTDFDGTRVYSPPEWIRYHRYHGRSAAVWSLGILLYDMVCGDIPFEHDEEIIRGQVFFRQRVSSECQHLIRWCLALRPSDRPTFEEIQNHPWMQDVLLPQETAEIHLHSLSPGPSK
Experimental: as §1

[9] = system: U-2 OS, HCT116, MDA-MB231, SH-SY5Y and RPE-1 cell lines; experiment: Cell viability primary screen at 25 μM; type: cell-based, human; settings: 48 h; for Effect on cell viability, primary screen: all tested cell lines
Experimental: (§2) HCT116 cells were cultured in McCoy’s medium. SH-SY5Y, MDA-MB231 and U-2 OS cells were cultured in Dulbecco's modified Eagle's medium (DMEM) and hTERT RPE-1 cells in DMEM:F12 medium. All media were supplemented with 10% foetal calf serum and cells were cultured at 37 °C in a 5% CO2 humidified atmosphere.
(§3) Cell viability was then assessed using the CellTiter96 AQueous cell proliferation assay from Promega according to the manufacturer’s instructions. Each experiment was done in triplicate and EC50 were determined from the dose-response curves according to the signal given by the control (0.1% DMSO) set at 100% viability using Prism GraphPad software.

[10] = system: RPE1 cell line; experiment: Cell viability MTS assay, dose-response; type: cell-based; settings: Homo sapiens, RPE-1; 48 h, MTS assay in triplicate, doses up to 50 µM
Experimental: as §2, §3

[11] = system: U-2 OS cell line; experiment: Cell viability MTS assay, dose-response; type: cell-based; settings: Homo sapiens, U2OS; 48 h, MTS assay in triplicate, doses up to 50 µM
Experimental: as §2, §3

Sequence of MmCLK1 (P22518 whole entry): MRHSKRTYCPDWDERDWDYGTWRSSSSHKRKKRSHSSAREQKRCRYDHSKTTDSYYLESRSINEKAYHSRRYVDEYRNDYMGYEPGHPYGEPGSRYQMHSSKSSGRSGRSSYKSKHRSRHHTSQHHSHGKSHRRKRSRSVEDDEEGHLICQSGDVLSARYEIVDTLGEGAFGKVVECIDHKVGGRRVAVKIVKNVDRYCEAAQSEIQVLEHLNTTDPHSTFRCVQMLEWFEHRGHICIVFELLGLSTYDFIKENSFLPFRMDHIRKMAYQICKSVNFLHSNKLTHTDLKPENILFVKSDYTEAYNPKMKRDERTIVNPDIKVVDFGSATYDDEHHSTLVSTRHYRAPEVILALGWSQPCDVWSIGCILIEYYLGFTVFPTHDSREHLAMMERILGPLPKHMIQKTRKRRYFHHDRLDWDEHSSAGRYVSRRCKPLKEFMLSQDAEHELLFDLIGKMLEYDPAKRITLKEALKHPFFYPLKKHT

| SMILES | remaining activity at 1 µM [1] [%] | pIC50 [1] | pIC50 [2] | remaining activity [2] [%] | remaining activity at 1 µM [3] [%] | remaining activity at 1 µM [4] [%] | remaining activity at 1 µM [5] [%] | remaining activity at 1 µM [6] [%] | pIC50 [6] | remaining activity at 1 µM [7] [%] | remaining activity at 1 µM [8] [%] | Effect on cell viability, primary screen [9] | pEC50 [10] | pEC50 [11] | melting point [°C] | Selectivity index CLK1/Haspin [1] | Selectivity index DYRK/Haspin [2] | Reduction of cell viability compared to the DMSO control [9] [%] |
| --- | --- | --- | --- | --- | --- | --- | --- | --- | --- | --- | --- | --- | --- | --- | --- | --- | --- | --- |
| COc1ccc2[nH]c3c(=O)[nH]c4ccccc4c3c2c1 [Compound 49, 10-Methoxy-5,7-dihydro-6H-indolo[2,3-c]quinolin-6-one] | 5 | 7.89 | 7.82 | 7 | 40 | 73 | 77 | 2 | 9.00 | 39 | 41 | little to no effect | < 4.60 | < 4.60 | 232 to 235 | – | – | – |
| COc1ccc2c(c1)[nH]c(=O)c1[nH]c3ccc(OC)cc3c12 [Compound 50, 3,10-Dimethoxy-5,7-dihydro-6H-indolo[2,3-c]quinolin-6-one] | 10 | 7.06 | 6.71 | 5 | 51 | 77 | 81 | 3 | 8.15 | 44 | 19 | – | 4.68 | 5.37 | 192 to 195 | 13 | 28 | ≥ 75 |
| COc1ccc2[nH]c(=O)c3[nH]c4ccc(OC)cc4c3c2c1 [Compound 51, 2,10-Dimethoxy-5,7-dihydro-6H-indolo[2,3-c]quinolin-6-one] | 5 | 8.00 | 7.39 | 14 | 33 | 62 | 70 | 1 | 8.40 | 29 | 36 | little to no effect | < 4.60 | 4.90 | 190 to 192 | 3 | 10 | – |
| COc1ccc2[nH]c3c(=O)[nH]c4cc(O)ccc4c3c2c1 [Compound 54, 3-Hydroxy-10-methoxy-5,7-dihydro-6H-indolo[2,3-c]quinolin-6-one] | 11 | 7.09 | 7.01 | 2 | 18 | 35 | 59 | 0 | 8.40 | 48 | 9 | little to no effect | < 4.60 | < 4.60 | 227 to 230 | 21 | 24 | – |
| COc1ccc2[nH]c3c(=O)[nH]c4ccc(N)cc4c3c2c1 [Compound 56, 2-Amino-10-methoxy-5,7-dihydro-6H-indolo[2,3-c]quinolin-6-one] | 3 | 6.67 | 6.65 | 7 | 37 | 72 | 79 | 2 | 7.85 | 39 | 65 | little to no effect | < 4.60 | < 4.60 | > 250 | 15 | 16 | – |
| O=c1[nH]c2ccc(O)cc2c2c1[nH]c1ccc(F)cc12 [Compound 61, 10-Fluoro-2-Hydroxy-5,7-dihydro-6H-indolo [2,3-c]quinolin-6-one] | 2 | 7.11 | 6.98 | 9 | 41 | 57 | 91 | 0 | 8.30 | 71 | 38 | – | 4.72 | 5.06 | 240 to 243 | 16 | 21 | ≥ 75 |

— article PMC9186362, “Design and biological evaluation of substituted 5,7-dihydro-6H-indolo[2,3-c]quinolin-6-one as novel selective Haspin inhibitors” (Journal of Enzyme Inhibition and Medicinal Chemistry, 2022)
